Values joined by “and” are separate entries in the source; they are usually repeats but may differ in a detail not shown here. Equal values may be shown once. Read-outs that look alike come from different tables or passages of the source. Marks after values point to notes of the source that are not given here.
Assays:
[1] = Phase I study: pharmacokinetics of Bel; type: in vivo, human; conditions: for half-life: read-out: T1/2, group mean (±SD) (converted)
Description: (§1) Phase I dose-escalation, multi-center study with the objectives to assess: • maximum tolerated dose and dose limiting toxicities (DLT) of Bel in combination with FU • impact of Bel on expression of TS, dihydropyrimidine dehydrogenase (DPD), and p21, in tumor and non-tumor surrogate tissue (peripheral blood mononuclear cells; PBMC) • preliminary anti-tumor activity of Bel in combination with FU • impact of Bel on ECG parameters • pharmacokinetics (PK) of Bel when given in combination with FU
Treatment cycles of 21 days included Bel alone in cycle 1, and Bel in combination with FU in all subsequent cycles (FIG. 4). Treatment was to continue until significant treatment-related toxicity or progressive disease.

[2] = set-up: species or system human; conditions: in vivo
Procedure: Cardiac safety was analyzed by extensive ECG monitoring (>3.000 ECG's assessed) in combination with PK assessments of Bel. Based on analyses by a central laboratory, the main findings (mean changes from baseline at the different dose-levels and for Bel alone and in combination with FU) were: • Heart rate, changes of −1 to +11 bpm, without outliers or any dose relationship. • PR duration, changes of −8 to +2 ms, without outliers or any dose relationship. • QRS duration, changes of −3 to +4 ms, without outliers or any dose relationship. • QTcF duration, changes of −4 to +18 ms, without any dose relationship. One outlier pat with a new QTcF value >500 ms was identified at dose-level 1000/750 (max post-infusion QTcF value 522 ms from pre-infusion value of 487 ms).
as §1

[3] = test system: TS, DPD, and p21 expression in PBMC; test: '2 out of 3' TS/DPD/p21 expression pattern in PBMC versus clinical outcome; type: in vivo, human
Description: Among the 20 patients where an attempt was made to analyze TS, DPD, and p21 in PBMC, 2 patients seemed to have a clearly favorable clinical outcome (patients 101-3 and 102-14 with treatment durations on Bel/FU of 8 and 14 cycles, respectively; see Tables 4 and 6), i.e. a 10% favorable outcome rate without selection.
If selection of patients for treatment with Bel/FU would have been done after an initial-dose of Bel and analyses of TS, DPD, and p21 expression in PBMC 6-hours post Bel dosing, the favorable outcome rate could have been increased to between 33% and 67% by selection of patients based on a “2 out of 3” positive expression pattern (positive assumed to be TS down-, DPD down-, and p21 up-regulation in comparison to a pre-treatment value).
Selection based on one single sample taken 6-hours post Bel dosing (Table A): 6 (30%; patients 101-3/5/6/7, 102-6/14) of the 20 patients have “2 out of 3” markers showing a favorable expression change after Bel dosing, and 2 (33%) of the 6 patients have clearly favorable clinical outcomes. Note, also patients 101-6 and 101-7 with a “2 out of 3” pattern, but not counted as having “clearly favorable clinical outcome” have longer than median treatment durations on Bel/FU (i.e. 4 cycles; see Table 4).
Selection based on mean of two samples taken 6-hours post Bel dosing (Table B): 3 (15%; patients 101-3, 102-6/14) of the 20 patients have “2 out of 3” markers showing a favorable expression change after Bel dosing, and 2 (67%) of the 3 patients have clearly favorable clinical outcomes.
(§2) DLTs, i.e. grade ¾ non-hematologic toxicities and grade 4 neutropenia or thrombocytopenia, were determined in cycles 1 and 2. Safety was assessed by NCI CTC (v. 3) and efficacy by RECIST criteria. Expression of TS, DPD, and p21 mRNA was measured by RTQ-PCR in PBMC (20 patients at baseline, and pre-dosing, 6 and 24-hours post-dosing, on days 1 and 4 in cycle 1) and in tumor biopsies (8 patients at baseline and once on days 4 or 5 in cycle 1). Results were expressed as gene expression relative to actin (i.e. TS/Actin Relative Gene Expression, DPD/Actin Relative Gene Expression, and p21/Actin Relative Gene Expression).

[4] = test system: dihydropyrimidine dehydrogenase (DPD); test: DPD mRNA by RTQ-PCR in tumor biopsies; type: in vivo, human
Procedure: as §2

[5] = test system: dihydropyrimidine dehydrogenase (DPD); test: DPD mRNA by RTQ-PCR in PBMC; type: in vivo, human; conditions: for DPD maximum percentage change versus baseline: one value per patient
Procedure: as §2

[6] = test system: thymidylate synthase (TS); test: TS mRNA by RTQ-PCR in PBMC; type: in vivo, human; conditions: for TS maximum percentage change versus baseline: one value per patient
Procedure: as §2

tumour = test: xenograft models, tumour growth; conditions: in vivo
p21 = p21 mRNA by RTQ-PCR in PBMC; type: in vivo, human; conditions: for P21 maximum percentage change versus baseline: one value per patient
Procedure: as §2

[7] = test system: diverse tumour cell lines; test: proliferation of diverse tumour cell lines; type: cell-based; conditions: range over cell lines; read-out: IC50, blocks proliferation of diverse tumour cell lines
[8] = test system: rapidly proliferating cells; test: cell cycle arrest and apoptosis; type: cell-based
[9] = belinostat 1000 mg/m^2/day alone, Cycle 2 Day 1, n = 14
[10] = belinostat 1000 mg/m^2/day in combination with FU, Cycle 2 Day 5, n = 13
[11] = PXD 600, one value per patient, listed as PXD
[12] = PXD 600, one value per patient, listed as PXD, with FU dose 250
[13] = PXD 600, one value per patient, listed as PXD, with FU dose 1000
[14] = PXD 1000, one value per patient, listed as PXD
[15] = PXD 1000, one value per patient, listed as PXD, with FU dose 250
[16] = PXD 1000, one value per patient, listed as PXD, with FU dose 500
[17] = PXD 1000, one value per patient, listed as PXD, with FU dose 1000
[18] = cycle 1, Belinostat Dose 300 mg/m^2/day
[19] = cycle 1, Belinostat Dose 600 mg/m^2/day
[20] = cycle 1, Belinostat Dose 1000 mg/m^2/day

O=C(/C=C/c1cccc(S(=O)(=O)Nc2ccccc2)c1)NO [PXD-101]
CL, group mean (±SD) [1, 9]: 37,580 (10,893) ml/hr/m^2 | Vss, group mean (±SD) [1, 9]: 16,528 (4,918) ml/m^2 | Vz, group mean (±SD) [1, 9]: 58,362 (26,136) ml/m^2 | CL, group mean (±SD) [1, 10]: 30,141 (13,824) ml/hr/m^2 | Vss, group mean (±SD) [1, 10]: 13,538 (7,253) ml/m^2 | Vz, group mean (±SD) [1, 10]: 53,316 (29,753) ml/m^2 | PK linearity ([1]; day 1 across all dose cohorts (n=22)): linear PK | half-life ([1]; human, in vivo, intravenous, 1000 mg/m2, belinostat 1000 mg/m^2/day alone, Cycle 2 Day 1, n = 14): 60 min | AUC(0-inf) ([1]; human, in vivo, intravenous, belinostat 1000 mg/m^2/day in combination with FU, Cycle 2 Day 5, n = 13, read-out: AUC0-∞, group mean (±SD)): 33300 ng·h/mL | AUC ([1]; human, in vivo, intravenous, belinostat 1000 mg/m^2/day in combination with FU, Cycle 2 Day 5, n = 13, read-out: AUCall, group mean (±SD)): 33200 ng·h/mL | Cmax ([1]; human, in vivo, intravenous, belinostat 1000 mg/m^2/day in combination with FU, Cycle 2 Day 5, n = 13, read-out: Cmax, group mean (±SD)): 49500 ng/mL | half-life ([1]; human, in vivo, intravenous, belinostat 1000 mg/m^2/day in combination with FU, Cycle 2 Day 5, n = 13): 72 min | max post-infusion QTcF value of the one outlier pat ([2]; human): 522 ms | effect on heart rate, AV conduction, cardiac depolarization, morphology or cardiac re-polarization [2]: no clear signal of any clinically relevant effect | patients with '3 of 3 correct' marker pattern ([3]; 6 h, mean of d1 + d4): 2 pts | patients with '2 of 3 correct' marker pattern (down TS-down DPD-up p21) ([3]; 6 h, mean of d1 + d4, of 20 patients): 3 pts | patients with '3 of 3 correct' marker pattern ([3]; 6 h day 1): 2 pts | patients with '2 of 3 correct' marker pattern (down TS-down DPD-up p21) ([3]; 6 h day 1, of 20 patients): 6 pts | DPD expression change in tumor tissue ([4]; Bel monotherapy, Bel 1000 mg/m^2/day): minor changes | DPD Change vs baseline ([4]; patient tumor samples, cycle 1 day 4 or 5, Bel 1000 mg/m^2/day, one value per patient, listed as belinostat): ≈ | 6mean-DPD, Change from baseline at 6 h based on mean of d1 + d4 ([5]; PXD 300, one value per patient): 131% | D1-6: DPD, Change from baseline at 6 h day 1 ([5]; PXD 300, one value per patient): 136% | D1-6: DPD, Change from baseline at 6 h day 1 [5, 11]: 30% and −87% and −56% and −13% | 6mean-DPD, Change from baseline at 6 h based on mean of d1 + d4 [5, 12]: −22% and −37% and −13% | 6mean-DPD, Change from baseline at 6 h based on mean of d1 + d4 [5, 13]: −59% | D1-6: DPD, Change from baseline at 6 h day 1 [5, 14]: −55% and −57% and 78% and −62% and −28% and 373% and 14% and 6% and 160% and −20% and 547% | 6mean-DPD, Change from baseline at 6 h based on mean of d1 + d4 [5, 15]: −55% and 8% and 124% and −22% and 267% and 372% | 6mean-DPD, Change from baseline at 6 h based on mean of d1 + d4 [5, 16]: 278% and 56% | 6mean-DPD, Change from baseline at 6 h based on mean of d1 + d4 [5, 17]: 15% and 73% and −20% | DPD maximum percentage change versus baseline [5, 18]: 136% | DPD maximum percentage change versus baseline [5, 19]: −74% * and −87% * and −73% * and −13% * | DPD maximum percentage change versus baseline [5, 20]: 547% and 91% and 220% and 169% and −83% * and 563% and 373% and 98% and −60% * and 160% and −20% * and 62% | 6mean-TS, Change from baseline at 6 h based on mean of d1 + d4 ([6]; PXD 300, one value per patient): 410% | D1-6: TS, Change from baseline at 6 h day 1 ([6]; PXD 300, one value per patient): 486% | D1-6: TS, Change from baseline at 6 h day 1 [6, 11]: 62% and −87% and 144% | 6mean-TS, Change from baseline at 6 h based on mean of d1 + d4 [6, 12]: 126% and 144% | 6mean-TS, Change from baseline at 6 h based on mean of d1 + d4 [6, 13]: −65% | D1-6: TS, Change from baseline at 6 h day 1 [6, 14]: −51% and 63% and −21% and 88% and −14% and 274% and 238% | 6mean-TS, Change from baseline at 6 h based on mean of d1 + d4 [6, 15]: −51% and 54% and 286% and 169% and 182% | 6mean-TS, Change from baseline at 6 h based on mean of d1 + d4 [6, 17]: 51% and 142% | TS maximum percentage change versus baseline [6, 18]: 486% | TS maximum percentage change versus baseline [6, 19]: 190% and −87% * and 144% | TS maximum percentage change versus baseline [6, 20]: 238% and −51% * and 63% and 594% and 250% and 116% and 274% and −67% * and 214% | tumour growth in xenograft models (tumour): slows tumour growth | 6mean-p21, Change from baseline at 6 h based on mean of d1 + d4 (p21; PXD 300, one value per patient): 41% | D1-6: p21, Change from baseline at 6 h day 1 (p21; PXD 300, one value per patient): 35% | D1-6: p21, Change from baseline at 6 h day 1 (p21; [11]): −9% and 31% and −48% | 6mean-p21, Change from baseline at 6 h based on mean of d1 + d4 (p21; [12]): −16% and −55% | 6mean-p21, Change from baseline at 6 h based on mean of d1 + d4 (p21; [13]): 15% | D1-6: p21, Change from baseline at 6 h day 1 (p21; [14]): 272% and −54% and 115% and −25% and 16% and 43% and 21% and 13% and −11% and 74% and 68% | 6mean-p21, Change from baseline at 6 h based on mean of d1 + d4 (p21; [15]): 272% and −55% and 155% and −17% and 44% and 32% | 6mean-p21, Change from baseline at 6 h based on mean of d1 + d4 (p21; [16]): 21% and −25% | 6mean-p21, Change from baseline at 6 h based on mean of d1 + d4 (p21; [17]): −35% and 23% and 74% | P21 maximum percentage change versus baseline (p21; [18]): 48% * | P21 maximum percentage change versus baseline (p21; [19]): 43% * and 88% * and −86% | P21 maximum percentage change versus baseline (p21; [20]): 68% * and 972% * and −72% and 715% * and 62% * and 156% * and 43% * and −71% and −83% and −86% and 74% * and −47% | IC50 [7]: 80 to 2430 nM | cell cycle arrest and apoptosis [8]: causes cell cycle arrest and apoptosis
